Experiments:
[1] = biological target: T1, Mitogen-activated protein kinase kinase kinase 5 (Homo sapiens) (UniProt Q99683); experiment: Selectivity interaction (KinomeScan (DiscoverX)) EUB0000655a MAP3K5; details: at 10 µM
T1 sequence (whole entry): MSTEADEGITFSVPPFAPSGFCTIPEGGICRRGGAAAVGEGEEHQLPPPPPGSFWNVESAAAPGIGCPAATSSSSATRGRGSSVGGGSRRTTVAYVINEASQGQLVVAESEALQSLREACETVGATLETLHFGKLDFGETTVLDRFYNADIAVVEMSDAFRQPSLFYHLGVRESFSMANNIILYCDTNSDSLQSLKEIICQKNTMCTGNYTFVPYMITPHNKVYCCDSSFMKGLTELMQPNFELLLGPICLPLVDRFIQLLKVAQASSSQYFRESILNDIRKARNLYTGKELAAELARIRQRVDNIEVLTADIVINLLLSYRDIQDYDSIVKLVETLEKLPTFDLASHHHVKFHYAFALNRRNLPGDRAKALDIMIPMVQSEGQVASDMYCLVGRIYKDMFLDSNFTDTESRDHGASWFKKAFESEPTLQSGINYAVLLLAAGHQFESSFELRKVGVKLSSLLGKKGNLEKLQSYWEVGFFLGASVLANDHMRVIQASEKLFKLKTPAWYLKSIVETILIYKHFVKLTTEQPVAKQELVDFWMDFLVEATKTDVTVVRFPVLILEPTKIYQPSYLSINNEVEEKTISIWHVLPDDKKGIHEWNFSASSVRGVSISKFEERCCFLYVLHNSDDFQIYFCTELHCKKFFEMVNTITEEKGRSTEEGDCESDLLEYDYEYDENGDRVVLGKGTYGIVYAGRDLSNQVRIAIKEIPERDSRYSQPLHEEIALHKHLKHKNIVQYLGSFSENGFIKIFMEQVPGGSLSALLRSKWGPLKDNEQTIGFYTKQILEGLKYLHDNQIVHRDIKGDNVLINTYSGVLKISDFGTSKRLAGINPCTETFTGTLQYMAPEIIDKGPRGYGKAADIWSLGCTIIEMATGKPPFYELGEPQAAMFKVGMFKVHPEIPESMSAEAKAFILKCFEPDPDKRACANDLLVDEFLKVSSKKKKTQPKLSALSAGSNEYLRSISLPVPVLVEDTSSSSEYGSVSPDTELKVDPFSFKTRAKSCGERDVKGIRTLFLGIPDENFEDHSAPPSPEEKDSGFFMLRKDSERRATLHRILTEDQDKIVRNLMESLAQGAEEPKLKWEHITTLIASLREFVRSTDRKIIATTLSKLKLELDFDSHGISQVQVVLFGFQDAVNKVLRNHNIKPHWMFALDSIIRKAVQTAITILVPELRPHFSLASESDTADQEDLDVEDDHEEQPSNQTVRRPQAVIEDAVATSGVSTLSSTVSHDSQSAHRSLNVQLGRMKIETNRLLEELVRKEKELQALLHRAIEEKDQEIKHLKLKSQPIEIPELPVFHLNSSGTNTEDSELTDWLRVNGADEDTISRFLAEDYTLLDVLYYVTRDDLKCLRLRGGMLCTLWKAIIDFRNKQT

[2] = biological target: 1-phosphatidylinositol 3-phosphate 5-kinase (Homo sapiens) (UniProt Q9Y2I7); experiment: Selectivity interaction (KinomeScan (DiscoverX)) EUB0001079a PIKFYVE; details: at 1 µM
[3] = biological target: T2, Ephrin type-B receptor 1 (Homo sapiens) (UniProt P54762); experiment: Selectivity interaction (KinomeScan (DiscoverX)) EUB0001079a EPHB1; details: at 1 µM
T2 sequence (whole entry): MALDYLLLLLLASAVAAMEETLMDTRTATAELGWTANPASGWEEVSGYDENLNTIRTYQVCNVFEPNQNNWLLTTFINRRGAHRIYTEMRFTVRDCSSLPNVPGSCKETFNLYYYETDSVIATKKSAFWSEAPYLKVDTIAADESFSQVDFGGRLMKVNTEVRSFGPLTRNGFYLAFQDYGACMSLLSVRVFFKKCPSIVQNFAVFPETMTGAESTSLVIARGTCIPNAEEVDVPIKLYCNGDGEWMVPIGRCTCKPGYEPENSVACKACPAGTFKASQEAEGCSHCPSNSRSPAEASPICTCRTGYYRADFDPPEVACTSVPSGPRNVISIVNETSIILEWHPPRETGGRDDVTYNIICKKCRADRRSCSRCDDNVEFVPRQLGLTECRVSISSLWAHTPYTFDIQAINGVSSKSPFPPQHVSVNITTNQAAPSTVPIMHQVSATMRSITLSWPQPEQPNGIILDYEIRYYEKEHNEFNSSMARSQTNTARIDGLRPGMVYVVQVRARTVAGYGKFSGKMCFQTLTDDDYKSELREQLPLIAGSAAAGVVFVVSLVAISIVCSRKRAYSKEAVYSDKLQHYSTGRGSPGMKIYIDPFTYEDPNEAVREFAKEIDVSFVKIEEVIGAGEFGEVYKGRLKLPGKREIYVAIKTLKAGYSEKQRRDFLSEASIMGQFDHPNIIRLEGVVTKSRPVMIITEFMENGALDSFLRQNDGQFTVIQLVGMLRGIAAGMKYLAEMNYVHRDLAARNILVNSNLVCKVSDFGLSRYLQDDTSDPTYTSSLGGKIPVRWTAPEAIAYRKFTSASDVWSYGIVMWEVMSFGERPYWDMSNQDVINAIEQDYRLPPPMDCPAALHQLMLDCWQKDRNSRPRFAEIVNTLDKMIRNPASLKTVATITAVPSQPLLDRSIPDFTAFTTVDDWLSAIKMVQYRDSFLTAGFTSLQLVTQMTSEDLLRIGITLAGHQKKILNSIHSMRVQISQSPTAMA

[4] = biological target: T3, Serine/threonine-protein kinase Nek3 (Homo sapiens) (UniProt P51956); experiment: Selectivity interaction (ActivX KiNativ screen (kinase selectivity in THP-1 cell lysates)) EUB0000639a NEK3; assay type: subcellular; details: lysate
T3 sequence (whole entry): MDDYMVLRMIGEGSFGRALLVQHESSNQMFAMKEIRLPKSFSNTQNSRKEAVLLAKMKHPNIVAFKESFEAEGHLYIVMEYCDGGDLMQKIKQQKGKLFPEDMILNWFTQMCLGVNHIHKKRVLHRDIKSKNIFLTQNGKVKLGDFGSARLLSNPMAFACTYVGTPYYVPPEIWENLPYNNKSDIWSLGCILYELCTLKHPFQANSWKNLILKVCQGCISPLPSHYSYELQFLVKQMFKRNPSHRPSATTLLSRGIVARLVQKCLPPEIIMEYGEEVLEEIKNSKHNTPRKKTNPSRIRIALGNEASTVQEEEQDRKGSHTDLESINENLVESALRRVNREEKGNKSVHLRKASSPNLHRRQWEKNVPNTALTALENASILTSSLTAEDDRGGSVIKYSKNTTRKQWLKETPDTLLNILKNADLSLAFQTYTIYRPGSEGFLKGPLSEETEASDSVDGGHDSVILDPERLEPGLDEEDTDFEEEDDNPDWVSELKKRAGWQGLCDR

Sequence of 1-phosphatidylinositol 3-phosphate 5-kinase (Homo sapiens) (Q9Y2I7 whole entry): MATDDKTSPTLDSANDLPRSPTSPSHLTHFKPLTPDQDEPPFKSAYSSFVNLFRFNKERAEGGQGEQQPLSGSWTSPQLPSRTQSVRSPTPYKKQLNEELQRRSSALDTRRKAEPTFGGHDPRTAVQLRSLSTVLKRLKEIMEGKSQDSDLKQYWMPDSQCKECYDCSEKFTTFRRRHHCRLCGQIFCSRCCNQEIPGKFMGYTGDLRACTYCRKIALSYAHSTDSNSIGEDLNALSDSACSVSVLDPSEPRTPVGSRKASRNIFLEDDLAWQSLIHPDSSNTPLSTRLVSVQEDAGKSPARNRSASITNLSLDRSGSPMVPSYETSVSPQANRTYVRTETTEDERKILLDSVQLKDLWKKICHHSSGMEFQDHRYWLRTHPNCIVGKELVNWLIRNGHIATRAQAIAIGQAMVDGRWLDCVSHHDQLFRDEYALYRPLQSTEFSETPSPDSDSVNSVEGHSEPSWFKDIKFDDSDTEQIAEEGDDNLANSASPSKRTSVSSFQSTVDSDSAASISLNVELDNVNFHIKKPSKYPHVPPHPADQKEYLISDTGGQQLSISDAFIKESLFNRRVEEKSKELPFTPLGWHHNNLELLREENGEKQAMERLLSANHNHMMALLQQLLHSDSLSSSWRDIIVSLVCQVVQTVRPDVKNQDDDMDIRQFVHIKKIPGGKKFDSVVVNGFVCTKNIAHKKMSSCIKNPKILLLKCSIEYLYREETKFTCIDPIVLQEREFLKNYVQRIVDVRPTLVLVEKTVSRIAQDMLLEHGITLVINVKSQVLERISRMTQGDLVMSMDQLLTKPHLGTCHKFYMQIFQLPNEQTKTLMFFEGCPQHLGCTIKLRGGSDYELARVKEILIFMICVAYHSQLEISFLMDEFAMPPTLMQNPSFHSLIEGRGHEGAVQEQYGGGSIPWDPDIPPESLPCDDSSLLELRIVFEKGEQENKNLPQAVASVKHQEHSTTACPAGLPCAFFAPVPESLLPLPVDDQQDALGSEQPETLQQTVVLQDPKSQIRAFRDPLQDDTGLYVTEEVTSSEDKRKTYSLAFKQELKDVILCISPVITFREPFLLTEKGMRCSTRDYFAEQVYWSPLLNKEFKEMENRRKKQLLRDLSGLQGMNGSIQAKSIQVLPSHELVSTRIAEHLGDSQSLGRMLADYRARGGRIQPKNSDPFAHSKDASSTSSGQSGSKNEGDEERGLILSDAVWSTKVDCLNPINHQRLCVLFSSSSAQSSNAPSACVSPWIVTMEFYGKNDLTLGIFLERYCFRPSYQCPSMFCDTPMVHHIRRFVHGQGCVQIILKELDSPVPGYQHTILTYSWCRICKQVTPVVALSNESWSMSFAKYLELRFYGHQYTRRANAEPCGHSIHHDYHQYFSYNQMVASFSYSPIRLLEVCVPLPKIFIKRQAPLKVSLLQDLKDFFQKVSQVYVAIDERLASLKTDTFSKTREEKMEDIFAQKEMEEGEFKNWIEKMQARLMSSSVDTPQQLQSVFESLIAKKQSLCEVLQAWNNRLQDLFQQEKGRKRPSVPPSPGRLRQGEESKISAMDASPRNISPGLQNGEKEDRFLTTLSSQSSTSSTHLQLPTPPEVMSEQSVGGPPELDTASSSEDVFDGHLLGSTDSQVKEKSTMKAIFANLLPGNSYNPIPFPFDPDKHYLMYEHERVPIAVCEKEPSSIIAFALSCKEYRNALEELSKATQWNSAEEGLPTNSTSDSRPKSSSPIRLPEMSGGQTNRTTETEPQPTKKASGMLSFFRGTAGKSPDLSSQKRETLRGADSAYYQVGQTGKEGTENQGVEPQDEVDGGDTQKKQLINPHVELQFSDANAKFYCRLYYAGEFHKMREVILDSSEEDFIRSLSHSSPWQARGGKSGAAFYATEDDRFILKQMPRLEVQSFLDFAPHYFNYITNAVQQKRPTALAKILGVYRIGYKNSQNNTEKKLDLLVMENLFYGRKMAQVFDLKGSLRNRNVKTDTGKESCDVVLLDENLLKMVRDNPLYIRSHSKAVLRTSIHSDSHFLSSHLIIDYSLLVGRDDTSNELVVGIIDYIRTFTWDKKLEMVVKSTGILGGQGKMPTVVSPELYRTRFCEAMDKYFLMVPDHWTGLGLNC

Compound `CN(C)CCOc1ccc(-c2nc(-c3ccncc3)c(-c3ccc4c(c3)CC/C4=N\O)[nH]2)cc1` has a % of control [1] of 94%.
For `Nc1cnc(N2CCc3cc(S(=O)(=O)Nc4c(F)cc(Cl)cc4F)cc(N4CCCC4=O)c32)nc1` [TP-020n], the % of control [2] was 100% and the % of control [3] was 92%.
`CC[C@@H]1[C@H](F)C(=O)N[C@@H]1COc1nccc2cc(C(N)=O)c(OC)cc12` [ZIMLOVISERTIB] was tested, and the % of inhibition ([4]; at 0.01 µM) was -5.8%, the % of inhibition ([4]; at 0.04 µM) was -2.4% and the % of inhibition ([4]; at 0.2 µM) was 6.9%. It also gave a % of inhibition ([4]; at 1 µM) of -1.1% and a % of inhibition ([4]; at 5 µM) of -11.5%.

— ChEMBL document CHEMBL5465560, “Selectivity Literature for EUbOPEN Chemogenomic Library” (2024)
